Patent US20050163852A1, “Process for loading and thermodynamically activating drungs on polymers by means of supercritical fluids” (priority 2002, published 2005)

Experiment: Activation level by Differential Scanning Calorimetry (fraction of crystalline form)
Format: physicochemical
Conditions: DSC, ΔHmelting/ΔH0 normalized to drug assayed in the polymer
Method: The presence of amorphous, nanocrystalline or crystal phase can be detected by means of Differential Scanning Calorimetry (DSC). Compared to the sharp melting peak of the drug crystal, the nanocrystals present a broader peak with a markedly lower maximum of temperature (I. Colombo et al. 4th Int. Conf. Pharm. Technol., 1986; F. Carli et al. Acta Pharm. Jugosl. 38, 361, 1988).
In the examples, the activation level is expressed as the fraction of crystalline form. It is determined by comparing the enthalpy relative to the melting of the crystals in the polymer (ΔHmelting) to that of pure drug (ΔH0). The ΔHmelting/ΔH0 ratio, normalized in accordance with the drug assayed in the polymer, is then considered equal to the fraction of crystalline form. The higher the amount of crystals (higher crystallinity), the lower the thermodynamic activation level of the drug.

Crystallinity (nimesulide, supercritical CO2) [%] | Crystallinity (ibuprofen, supercritical CO2) [%] | Crystallinity (ibuprofen, supercritical ethylene) [%] | Structure (SMILES)
100 |  |  | CS(=O)(=O)Nc1ccc([N+](=O)[O-])cc1Oc1ccccc1 [Nimesulide, nimesulide]
 | 100 | 100 | CC(C)Cc1ccc(C(C)C(=O)O)cc1 (stereo not drawn) [Ibuprofen, ibuprofen]
